Patent publication US3975433A, “1-(2,4-Dimethoxy-phenyl)-3-(2-hydroxyethyl)thiourea” (The Dow Chemical Company, priority 1975, dated 1976)

Columns and labels:
Ascaridia galli = experiment: control of Ascaridia galli in chickens (anthelmintic efficacy); type: in vivo; conditions: infected chickens; for activity in controlling Ascaridia: tested as controls, result in words, dose not separately stated
Description: The compound was evaluated for activity in the control of Ascaridia galli in chickens. The test chickens following infection with Ascaridia are held for at least 30 days to permit all worms to mature. The compound is evaluated for activity in two chickens which are caged together. The compound may be administered orally as a single oral dose or in the feed for four consecutive days. Anthelmintic efficacy of the compound against Ascaridia is determined by comparing the number of ascarids passed in the feces during the first 72 hours post treatment to the number of worms recovered at necropsy.
The following compounds were also tested as controls and found to have no activity in controlling Ascaridia: 1-(4-methoxyphenyl)-3-(2-hydroxyethyl)thiourea; 1-(2,4-dimethylphenyl)-3-(2-hydroxyethyl)thiourea; 1-(4-methylphenyl)-3-(2-hydroxyethyl)thiourea; and 1-(4-methoxy-2-methylphenyl)-3-(2-hydroxyethyl)thiourea.

reserpine-induced ptosis = experiment: counteraction of reserpine-induced ptosis in mice (antidepressant properties); type: in vivo; conditions: for inhibition of reserpine-induced ptosis: mice, 60 mg/kg (i.p.), comparative trials, result in words
Description: The antidepressant properties of the thiourea employed in the methods of the present invention are determined by measuring their ability to counteract ptosis induced in animals by the intraperitoneal injection of reserpine. Graded doses (from about 2.1 to about 100 mg/kg) of the active compounds of this invention are administered intraperitoneally to groups of five mice each, followed 30 minutes later by an intraperitoneal injection of reserpine in an amont which is known to induce ptosis in mice. Similar groups of control mice are administered only reserpine. Forty-five minutes after the administration of reserpine, the presence or absence of ptosis is noted. The percent inhibition of ptosis is noted and the median effective dose (ED50) of each test ingredient which protected 50% of the test mice from reserpine-induced ptosis was calculated.

SMILES	activity in controlling Ascaridia (Ascaridia galli)	other results
Cc1ccc(NC(=S)NCCO)c(C)c1 [1-(2,4-dimethylphenyl)-3-(2-hydroxyethyl)thiourea]	no activity	–
COc1ccc(NC(=S)NCCO)cc1OC [1-(3,4-dimethoxyphenyl)-3-(2-hydroxyethyl)thiourea]	–	inhibition of reserpine-induced ptosis (reserpine-induced ptosis): did not inhibit
COc1ccccc1NC(=S)NCCO [1-(2-methoxyphenyl)-3-(2-hydroxyethyl)thiourea]	–	inhibition of reserpine-induced ptosis (reserpine-induced ptosis): did not inhibit
COc1ccc(NC(=S)NCCO)c(C)c1 [1-(4-methoxy-2-methylphenyl)-3-(2-hydroxyethyl)thiourea]	no activity	–
CN(C)CCCN1c2ccccc2CCc2ccccc21 [Imipramine]	–	ED50 (reserpine-induced ptosis; Mus musculus, ip, read-out: ED50 (median effective dose which protected 50% of the test mice from reserpine-induced ptosis)): 15 mg/kg
Cc1ccc(NC(=S)NCCO)cc1 [1-(4-methylphenyl)-3-(2-hydroxyethyl)thiourea]	no activity	–
COc1ccc(NC(=S)NCCO)cc1 [1-(4-methoxyphenyl)-3-(2-hydroxyethyl)thiourea]	no activity	–
COc1ccc(NC(=S)NCCO)c(OC)c1 [Compound 1, 1-(2,4-dimethoxyphenyl)-3-(2-hydroxyethyl)thiourea]	–	activity (number of worms passed in the feces compared to those found at autopsy) (Ascaridia galli; 150 mg/kg, feces during first 72 hours post treatment): 50%
